Measured values: the supplement of paper PMC10307832

Experiments:
Test in all cases: relative viability (nuclei count vs DMSO), 5 days (fraction); higher = more cells survive
[1] = compound: CC1CC(=O)N(C2=CN=C(N=C2N1C3CCCC3)NC4=C(C=C(C=C4)C(=O)NC5CCN(CC5)C)OC)C [NPK76-II-72-1] + CCNC(=O)c1noc(-c2cc(C(C)C)c(O)cc2O)c1-c1ccc(CN2CCOCC2)cc1 [Luminespib] (partner 0.01 µM)
Method in brief: (§1)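 Lung cancer cell lines in 1536-well plates got either a single drug or a fixed anchor-drug dose together with five library-drug doses (not always all listed) in √10 steps, by pin tool, on the day after seeding. Nuclei were counted after 5 days, and relative viability is the treated-to-vehicle ratio of nuclei counts. Values are medians of duplicate plates.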

[2] = compound: CC[C@@H]1C(=O)N(C)c2cnc(Nc3ccc(C(=O)NC4CCN(C)CC4)cc3OC)nc2N1C1CCCC1 [BI-2536] + CC(=O)c1c(C)c2cnc(Nc3ccc(N4CCNCC4)cn3)nc2n(C2CCCC2)c1=O [Palbociclib] (partner 0.5 µM)
Method in brief: as §1

[3] = compound: CC[C@@H]1C(=O)N(C)c2cnc(Nc3ccc(C(=O)NC4CCN(C)CC4)cc3OC)nc2N1C1CCCC1 [BI-2536] + COc1cccc2cc(-c3nc([C@H]4CC[C@H](C(=O)O)CC4)n4ncnc(N)c34)[nH]c12 [OSI-027] (partner 0.5 µM)
Method in brief: as §1

[4] = compound: CC[C@@H]1C(=O)N(C)c2cnc(Nc3ccc(C(=O)NC4CCN(C)CC4)cc3OC)nc2N1C1CCCC1 [BI-2536] + O=C(CCCCCCC(=O)Nc1ccccc1)NO [Vorinostat] (partner 1 µM)
Method in brief: as §1

UMC-11
relative viability ([1]; first compound 0.01 µM): 0.997
relative viability ([1]; first compound 0.03162 µM): 1
relative viability ([1]; first compound 0.1 µM): 0.934
relative viability ([1]; first compound 1 µM): 0.988
relative viability ([2]; first compound 0.01 µM): 0.295
relative viability ([2]; first compound 0.03162 µM): 0.295
relative viability ([2]; first compound 0.1 µM): 0.228
relative viability ([2]; first compound 0.3162 µM): 0.223
relative viability ([2]; first compound 1 µM): 0.23
relative viability ([3]; first compound 0.01 µM): 0.5
relative viability ([3]; first compound 0.03162 µM): 0.27
relative viability ([3]; first compound 0.1 µM): 0.138
relative viability ([3]; first compound 0.3162 µM): 0.192
relative viability ([3]; first compound 1 µM): 0.158
relative viability ([4]; first compound 0.01 µM): 0.343
relative viability ([4]; first compound 0.03162 µM): 0.315
relative viability ([4]; first compound 0.1 µM): 0.187
relative viability ([4]; first compound 0.3162 µM): 0.18
relative viability ([4]; first compound 1 µM): 0.145
